Where “and” joins values, the source holds several entries; their conditions need not be identical. Equal values may be shown once. Read-outs that look alike come from different tables or passages of the source.
What was measured:
[1] = test system: Bovine aortic endothelial cells; experiment: Secretion of [35S]-labelled sulphated GAG into culture medium of BAE cells; assay type: cell-based; conditions: for Mean CSGAG (%) of total secreted sulphated GAG / Mean HSGAG (%) of total secreted sulphated GAG: BAE cell culture media; for Mean CSGAG (%) of total secreted sulphated GAG: CSase ABC degradation; for Mean HSGAG (%) of total secreted sulphated GAG: Heparitinase II degradation; for Maximum stimulation of HSGAG secretion (fold over the base level): at 10 μM odiparcil
Procedure: GAG secreted into cell culture supernatant were analysed in Bovine aortic endothelial cells (ECACC 92010601), cultured in 6-well plates and incubated for 24 h in the presence of [^35S] sodium sulphate ([…]; 0.1% final concentration of DMSO). The culture supernatants were recovered and the unincorporated [^35S] was then removed by gel filtration on Sephadex G25 columns, the GAG being eluted in the column exclusion fraction (V0). A solution of cetylpyridinium chloride (0.1% final concentration) was added to the eluent in order to precipitate the GAG for 24 h at room temperature. The samples were then centrifuged and the supernatant was removed. The precipitate obtained was re-suspended in 2 M magnesium chloride and the GAG were precipitated with 5 volumes of 95% ethanol. After centrifugation, the alcoholic precipitates were re-suspended in 0.9% sodium chloride and then the radioactivity was measured.
In order to sort the GAG produced in the supernatants from cells in culture, the re-suspended alcoholic precipitates were treated with chondroitinase ABC (Proteus vulgaris) in a proportion of 0.5 mU/μL, for 3 h at 37°C. After inactivation of the enzyme for 3 min at 100°C, the undigested GAG were precipitated with 5 volumes of 95% ethanol, overnight at 4°C. After centrifugation, the alcoholic precipitates were re-suspended in 0.9% sodium chloride and then the radioactivity was measured on an aliquot fraction after addition of scintillation fluid in counting vials. GAG of heparan sulphate type were treated with heparinase II (Flavobacterium heparinum) in a proportion of 4 mU/μl, for 12 h at 30°C. After inactivation of the enzyme for 3 min at 100°C, the undigested GAG were precipitated with 5 volumes of 95% ethanol, overnight at 4°C. After centrifugation, the alcoholic precipitates were re-suspended in 0.9% sodium chloride and then the radioactivity was measured on an aliquot fraction after addition of scintillation fluid in counting vials.

[2] = Odiparcil tissue exposure after repeated oral dosing (LC-MS/MS); assay type: in vivo, Sprague Dawley rats; conditions: rat
Procedure: Sprague Dawley rats were orally administered with odiparcil for 5-days, three times a day (t.i.d) with a 25 mg/kg/dose as a suspension in Methylcellulose 400 cps 1% / Poloxamer 188 0.1% / Water. On day 5, only one dose was administered and tissues–bone from head of femurs and cartilage also from head of femurs, cornea and heart–were collected at 30 min post-dosing, 3 animals per sample. Tissues were snap-frozen immediately after collection and stored at -20°C until odiparcil quantification by LC-MS/MS. Non compartmental method was applied with Phoenix WinNonLin® to estimate the Cmax and AUC parameters. Tissue partition coefficient (Kp) was calculated on AUC values (AUC tissue / AUC plasma). Moreover, Kp for the heart was corrected for the significant blood content (26%) while it was not corrected for bone, cartilage and cornea.

Arsb^- mice = experiment: Cartilage thickness in trachea and distal femoral growth plate (histology); assay type: in vivo
Procedure: MPS VI model nonsense mutation Arsb^m1J homozygous mice (referred to as Arsb^- throughout the manuscript) and WT littermates were obtained from internal breeding of stock mice derived from The Jackson Laboratory strain No: 005598 (C57BL/6J-Arsb^m1J/GrsrJ). Genotyping and Arsb^m1J mutation identification were performed according to the protocol provided by The Jackson Laboratory. Each study group contained mix of male and female: 6 animals in disease progression studies and between 8 and 12 animals in odiparcil treatment studies.
Housing conditions. The animals were housed in groups of 3–10 (for mice) or 2 (for rats) in polypropylene cages (floor area = 1032 cm^2) under standard conditions: room temperature (22 ± 2°C), hygrometry (55 ± 10%), light/dark cycle (12h/12h), air replacement (15–20 volumes/hour), water and food ad libitum. Mice were allowed to habituate for at least 5 days prior to experimentation. Mice were numbered by marking their tail using indelible markers. For the early disease model (treatment starting in juvenile, 4 weeks old mice), odiparcil administration in the weeks 1 to 6 was done per gavage with odiparcil in Methylcellulose 400 cps 1% / Poloxamer 188 0.1% / Water, freshly prepared every week. Later on, administration was per chow diet with odiparcil mixed before diet granulation. […]

[3] = BAE cells, 24 h, [35S] sulphate

Cmax ([2]; Sprague-Dawley, bone (head of femurs), po, 25 mg/kg, bone (head of femurs), oral 25 mg/kg/dose t.i.d. 5 days, read-out: Cmax (converted)): 1310 ng/g
Cmax ([2]; Sprague-Dawley, bone (head of femurs), po, 25 mg/kg, bone, oral 25 mg/kg/dose t.i.d. 5 days, read-out: Cmax (converted)): 4 µM
Kp at 120 h ([2]; Sprague-Dawley, bone (head of femurs), po, 25 mg/kg, bone, oral 25 mg/kg/dose t.i.d. 5 days, read-out: Kp AUC (AUC tissue / AUC plasma)): 0.18
Kp ([2]; Sprague-Dawley, bone, cartilage, cornea, po, 25 mg/kg/dose, bone, cartilage and cornea together, repeated oral dosing, read-out: AUC Kp): ~0.15
Cmax ([2]; Sprague-Dawley, bone, cartilage, cornea, po, 25 mg/kg/dose, span over bone, cartilage and cornea, repeated oral dosing, read-out: Cmax (converted)): 500 ng/g to 1300 ng/g and 1.7 µM to 4 µM
Cmax ([2]; Sprague-Dawley, cartilage (head of femurs), po, 25 mg/kg, cartilage (head of femurs), oral 25 mg/kg/dose t.i.d. 5 days, read-out: Cmax (converted)): 1100 ng/g
Cmax ([2]; Sprague-Dawley, cartilage (head of femurs), po, 25 mg/kg, cartilage, oral 25 mg/kg/dose t.i.d. 5 days, read-out: Cmax (converted)): 3.4 µM
Kp at 120 h ([2]; Sprague-Dawley, cartilage (head of femurs), po, 25 mg/kg, cartilage, oral 25 mg/kg/dose t.i.d. 5 days, read-out: Kp AUC (AUC tissue / AUC plasma)): 0.12
Cmax ([2]; Sprague-Dawley, cornea, po, 25 mg/kg, cornea, oral 25 mg/kg/dose t.i.d. 5 days, read-out: Cmax (converted)): 535 ng/g and 1.7 µM
Kp at 120 h ([2]; Sprague-Dawley, cornea, po, 25 mg/kg, cornea, oral 25 mg/kg/dose t.i.d. 5 days, read-out: Kp AUC (AUC tissue / AUC plasma)): 0.12
Kp at 120 h ([2]; Sprague-Dawley, heart, po, 25 mg/kg, heart, corrected for blood content (26%), oral 25 mg/kg/dose t.i.d. 5 days, read-out: blood corrected Kp AUC): ~0.44
Kp at 120 h ([2]; Sprague-Dawley, heart, po, 25 mg/kg, heart, not blood corrected, oral 25 mg/kg/dose t.i.d. 5 days, read-out: Kp AUC (AUC tissue / AUC plasma)): 0.69
Cmax ([2]; Sprague-Dawley, heart, po, 25 mg/kg, heart, oral 25 mg/kg/dose t.i.d. 5 days, read-out: Cmax (converted)): ~4600 ng/g and ~14.3 µM
Cmax ([2]; Sprague-Dawley, plasma, po, 25 mg/kg, plasma, oral 25 mg/kg/dose t.i.d. 5 days, 30 min after last administration, read-out: Cmax (converted)): ~7300 ng/mL
Cmax ([2]; Sprague-Dawley, plasma, po, 25 mg/kg, plasma, oral 25 mg/kg/dose t.i.d. 5 days, read-out: Cmax (converted)): ~22.5 µM
AUC ([2]; Sprague-Dawley, plasma, oral 25 mg/kg/dose t.i.d. 5 days, read-out: AUC (converted)): 14800 ng·h/mL
AUC ([2]; bone, oral 25 mg/kg/dose t.i.d. 5 days): 2 646 ng.h/g
AUC ([2]; cartilage, oral 25 mg/kg/dose t.i.d. 5 days): 1 805 ng.h/g
AUC ([2]; cornea, oral 25 mg/kg/dose t.i.d. 5 days): 1 737 ng.h/g
AUC ([2]; heart, oral 25 mg/kg/dose t.i.d. 5 days): 10 203 ng.h/g
Cmax ([2]; plasma, oral 25 mg/kg/dose t.i.d. 5 days, 30 min after last administration, 25 mg/kg): 7 297 ng/mL
Structure (SMILES): Cc1cc(=O)oc2cc(O[C@@H]3SC[C@@H](O)[C@H](O)[C@H]3O)ccc12 [Odiparcil, 4-methyl-7-(5-thio-β-D-xylopyranosyloxy)-2 H-chromen-2-one]
Mean CSGAG (%) of total secreted sulphated GAG ([1]; odiparcil 0.1 µM): 78.5%
Mean HSGAG (%) of total secreted sulphated GAG ([1]; odiparcil 0.1 µM): 34.5%
Mean CSGAG (%) of total secreted sulphated GAG ([1]; odiparcil 0.3 µM): 83.5%
Mean HSGAG (%) of total secreted sulphated GAG ([1]; odiparcil 0.3 µM): 28.0%
Mean CSGAG (%) of total secreted sulphated GAG ([1]; odiparcil 1 µM): 83.9%
Mean HSGAG (%) of total secreted sulphated GAG ([1]; odiparcil 1 µM): 16.0%
Mean CSGAG (%) of total secreted sulphated GAG ([1]; odiparcil 3 µM): 82.5%
Mean HSGAG (%) of total secreted sulphated GAG ([1]; odiparcil 3 µM): 15.0%
Mean CSGAG (%) of total secreted sulphated GAG ([1]; odiparcil 10 µM): 73.5%
Mean HSGAG (%) of total secreted sulphated GAG ([1]; odiparcil 10 µM): 19.5%
Maximum CS-like GAGs (fold stimulation over the base level) [1, 3]: 12.2 fold
Maximum stimulation of total GAG secretion (fold over the base level) ([1]; BAE cells, 24 h, [35S] sulphate, achieved with 3 μM odiparcil): 10.7 fold
Maximum stimulation of HSGAG secretion (fold over the base level) [1, 3]: 4.92 fold
Maximum stimulation of HSGAG secretion (fold over the base level) ([1]; BAE cells, 24 h, [35S] sulphate, listed as odiparcil): 4.9 fold
Cartilage thickening in trachea and distal femoral growth plate (Arsb^- mice; Arsb^- mice, early and established disease models, 6 months of treatment): dose-dependent reduction of cartilage thickening
Cartilage thickness in wild type animals (Arsb^- mice; wild type mice, early disease treatment model, only distal femoral growth plate, significant only for the high dose): Some decrease in the thickness of cartilage
